From article PMC9570109, “Improved Trimethylangelicin Analogs for Cystic Fibrosis: Design, Synthesis and Preliminary Screening” (International Journal of Molecular Sciences, 2022)

Experiments:
[1] = In vivo oral pharmacokinetics in mice; conditions: c57BL/6 male mice; for AUC 0-inf / CL/F / Cmax / Tmax / t1/2: 20 mg/kg gavage, in water; for oral bioavailability: water as vehicle
Description: The main pharmacokinetic parameters of 4-PhDMA, pANDMA, and pANDMA mesylate were evaluated in c57BL/6 male mice, using water as dispersing vehicle.
All experimental procedures involving animals were conducted in accordance with the 3R principle to minimize their pain and discomfort. […] For the PK analysis, C57Bl6 male mice (n = 3 per time point) were gavaged with selected compounds (20 mg/kg), suspended in water, or dissolved in SEDDS formulations, after an overnight fast. […] 8.0 software (GraphPad Software Inc., San Diego, CA, USA), when appropriate. If not otherwise stated, the PK data are expressed as mean ± SD. p < 0.05 was considered statistically significant.
The TMA analogs were extracted and analyzed from mouse plasma as already reported. Briefly, 100 µL of plasma were treated with 300 µL of cold acetonitrile spiked with 80 nM of internal standard (IS, 6,4′-dimethylangelicin), and then the samples were centrifuged for 10 min at 12,000× g (Hettich Mikro 120 Benchtop Centrifuge) and 25 °C. Ten microliters of the supernatant were injected into the UHPLC system.
The analytical column was a Kinetex 2.6 μm C18 Polar, 100 A, 100 × 2.1 mm (Phenomenex, Bologna, Italy), thermostated at 30 °C. The mobile phase components A and B were water and methanol, respectively, both containing 10 mM ammonium formate. The eluent flow rate was 0.25 mL/min. […] MS data were analyzed using the Mass Hunter Qualitative Analysis software (Agilent Technologies, Palo Alto, CA, USA).
Chromatographic peaks of the TMA analog were identified and integrated by considering the Extracted Ion Chromatogram (EIC) of the [M+H]^+ species selected with a window of 5 ppm and normalized by the IS. Quantification of TMA analogs was carried out by external calibration of normalized signals using a seven-point calibration curve obtained by spiking blank plasma with each TMA analog in the range of 20–3000 nM.

HepG2 cells = test: Cytotoxicity MTT assay on HepG2 cells; conditions: HepG2, 24 h, highest concentration tested (50 μM)
Description: The potential toxicity of TMA analogs on hepatic tissue was assessed by evaluating the viability of HepG2 cells (ATCC, HB-8065) using the MTT assay, as previously reported [22]. Cells were maintained in DMEM complete medium (10% FBS, 1% l-glutamine and 1% PEN-STREP) and seeded in a 96-well plate (5 × 10^4 cells/mL). They were treated for 24 h with TMA analogs (concentration range from 3.125 μM to 50 μM). At the end of the treatment, cells were washed and an MTT solution (0.5 mg/mL in complete medium) was added to each well and incubated for 4 h at 37 °C. The solution was discarded, and the produced blue formazan crystals were dissolved with acidified isopropanol (2% HCl). Absorbance was measured at 570 nm using a multiplate reader (Victor Nivo, Perkin Elmer). The percentage of viable cells was calculated considering untreated cells as control.
The data shown in this figure are the results of three independent experiments, each
performed in quadruplicate.

SMILES	AUC 0-inf [1]	CL/F [1]	Cmax [1]	Tmax [1]	t1/2 [1]	oral bioavailability [1]	cell viability (HepG2 cells)	Cmax ([1]; 20 mg/kg)
Cc1cc2c(-c3ccccc3)cc(=O)oc2c2c(C)coc12 [4-PhDMA]	2.74736 ± 0.51361 µM·h	0.0014 ± 0.0014 mL/h/g	222 ± 184 nM	1.25 ± 1.06 h	21.13 ± 0.98 h	very low	greater than 75%	
Cc1cc(=O)oc2c1cc(-c1ccc(N)cc1)c1occ(C)c12 [pANDMA]	2.4054 ± 0.2082 µM·h	0.0083 ± 0.0007 mL/h/g		0.5 ± 0 h	1.91 ± 0.71 h	very low	greater than 75%	1520 ± 261 nM
